Marks after values point to notes of the source that are not given here.
What was measured:
[1] = system: MDR human mammary adenocarcinoma MCF-7/Adr xenograft; assay: in vivo; conditions: for toxicity: dEpoB 35 mg/kg Q2Dx5 i.p.
Method: (§1) DMSO was used as a vehicle for epothilones. Each mouse received ≦40 μL DMSO in all experiments.
(§2) Athymic nude mice (nu/nu) were used for MX-1 and MCF-7/Adr human mammary carcinoma xenografts. Mice were obtained from Taconic Laboratory Animals and Service (Germantown, N.Y.: outbred, Swiss background).

[2] = Stability in human plasma (HPLC); type: in vitro ADME
Method: Sample Preparation. To 300 microliters of spiked plasma are added 30 microliters of methanol. The mixture is agitated and allowed to stand for 2 minutes. Then 600 microliters of methanol are added. The mixture is centrifuged. The supernatant is removed for analysis by HPLC. Analyses were performed under the following chrmotographic conditions: Column: Nova-Pak C18, 15 cm. Eluant: 50% acetonitrile/water with 0.8% triethylamine, 0.2% phosphoric acid. Detection: UV (250 nm).

[3] = system: CCRF-CEM/Taxol®; assay: CCRF-CEM/Taxol xenograft, i.v. 6 h infusion; type: in vivo, nude mice; conditions: for Lowest Average Tumor Size (T/C) / Tumor Disappearance: dEpoB 30 mg/kg Q2D x 6, Taxol 15 mg/kg Q2D x 6
Text: Treatment on days 6, 8, 10, 12 and 14.
Treatment on days 19, 21, 23, 25, 27, 39, 41, 43, 45 and 47.

[4] = system: Human Lymphoblastic Leukemia CCRF-CEM; assay: CCRF-CEM xenograft in nude mice, i.v. 6 h infusion; type: in vivo; conditions: for Average Body Weight, Day 21: initial weight
[5] = system: CCRF-CEM/VBL; assay: CCRF-CEM/VBL xenograft in nude mice, i.v. 6 h infusion; type: in vivo; conditions: for Lowest Average Tumor Size (T/C) / Tumor Disappearance: dEpoB 30 mg/kg Q2D x 5, Taxol 15 mg/kg Q2D x 5
Text: Treatment on days 19, 21, 23, 25, 27, 39, 41, 43, 45, 47 and 53.

[6] = system: HT-29 Colon Adenocarcinoma; assay: HT-29 xenograft; type: in vivo, nude mice; conditions: for Lowest Average Tumor Size (T/C) / Tumor Disappearance: dEpoB 30 mg/kg Q2D x 6, Taxol 15 mg/kg Q2D x 6
[7] = system: human ovarian UL3-C tumor; assay: UL3-C ovarian tumor xenograft; conditions: for Lowest Average Tumor Size (T/C) / Tumor Disappearance: dEpoB 30 mg/kg Q2D x 5, Taxol 15 mg/kg Q2D x 5; for Average Body Weight (change), Day 33 / Average Body Weight Change, Day 27 / Average Body Weight Change, Day 29 / Average Body Weight Change, Day 31 / Average Tumor Size (T/C), Day 27 / Average Tumor Size (T/C), Day 29 / Average Tumor Size (T/C), Day 31 / Average Tumor Size (T/C), Day 33 / Average Body Weight, Day 19: dEpoB 30, Taxol 20 mg/kg, i.v. infusions on day 19,21,23,25,27; for Average Body Weight, Day 19: initial weight
[8] = in vivo; conditions: male, athymic nude (nu/nu), outbred, Swiss background, mouse, in vivo, ip
Method: as §1, §2

[9] = 35 mg/kg i.p. Q2Dx5 from day 8, day 11
[10] = 35 mg/kg i.p. Q2Dx5 from day 8, day 13
[11] = 35 mg/kg i.p. Q2Dx5 from day 8, day 15
[12] = 35 mg/kg i.p. Q2Dx5 from day 8, day 17
[13] = CCRF/CEM Leukemia, dEpoB 30 mg/kg Q2D x 5, Taxol 15 mg/kg Q2D x 5
[14] = MCF-7/Adr Breast, dEpoB 30 mg/kg Q2D x 5, Taxol 24 mg/kg Q2D x 5
[15] = Taxol 24 mg/kg, 6 hr i.v. infusion Q2D x 5 (day 8-16)
[16] = dEpo B 30, Taxol 15 mg/kg, 6 hr i.v. infusion Q2D x 5 (day 8-16)
[17] = high doses: Taxol 12, Adriamycin 3, Camptothecin 3.0 mg/kg i.p. day 8,10,12,14,16
[18] = male, athymic nude (nu/nu), outbred, Swiss background, mouse, in vivo
[19] = Dose DesoxyepoB 40, Taxol 20, i.v. infusion 6 hr on day 21,23,25,27
[20] = Table 26, Dose Q2D x 4: DesoxyepoB 40, Taxol 20

## C/C1=C/C[C@@H](/C(C)=C/c2csc(C)n2)OC(=O)C[C@H](O)C(C)(C)C(=O)[C@H](C)[C@@H](O)[C@@H](C)CCC1 [Desoxyepothilone B, desoxyepothilone B]
[1]; 35 mg/kg i.p. Q2Dx5 from day 8
  Toxicity Death: 0/8
[1]; [9]
  Average Body Weight Change: 0.3 g
  Average Tumor Size (T/C): 0.31**
[1]; [10]
  Average Body Weight Change: +0.7 g
  Average Tumor Size (T/C): 0.27***
[1]; [11]
  Average Body Weight Change: +0.6 g
  Average Tumor Size (T/C): 0.30***
[1]; [12]
  Average Body Weight Change: +0.8 g
  Average Tumor Size (T/C): 0.34*
[1]; 35 mg/kg, day 17
  tumor size reduction: 66%
[1]; 6 hr i.v. infusion, Q2Dx5
  therapeutic outcome: far better than Taxol®, although Q2Dx5 did not achieve a cure
[1]; listed as dEpoB
  toxicity: negligible toxicity
[1]; listed as desoxyepothilone B
  toxicity: no reduction in body weight or apparent toxicity
[1]; mouse, in vivo
  Average Body Weight (change), Day 14: -2.7 g
  Average Body Weight (change), Day 16: -4.0 g
  Average Body Weight (change), Day 18: -4.5 g
  Average Body Weight, Day 8: 30.3 g
  Average Tumor Size (T/C), Day 14: 0.16*** T/C
  Average Tumor Size (T/C), Day 16: 0.15 T/C
  Average Tumor Size (T/C), Day 18: 0.13*** T/C
  Lowest Average Tumor Size (T/C): 0.11 T/C
  Therapeutic Effects dEpoB vs Taxol: >>
  Toxicity Death: 0/3
  Tumor Disappearance: 0
[1]; mouse, in vivo, ip
  Therapeutic effect Rank Order: dEpoB >> Camptothecin >
[1]; mouse, in vivo, iv
  Therapeutic effect Rank Order: dEpoB >> VP-16,
[2]
  half-life in human plasma: about 75 hours
[3]; 6 hr i.v. infusion
  therapeutic outcome: full cure
[3]; CCRF-CEM/Taxol, i.v. infusion
  Therapeutic effect Rank Order: dEpoB >>> Taxol ®
[3]; CCRF/Taxol Leukemia
  Lowest Average Tumor Size (T/C): 0 T/C
  Tumor Disappearance: 3/3
[3]; CCRF/Taxol Leukemia, dEpoB 30 mg/kg Q2D x 6 vs Taxol 15 mg/kg Q2D x 6
  Therapeutic Effects dEpoB vs Taxol: >>>
[4]; CCRF-CEM, i.v. infusion
  Therapeutic effect Rank Order: dEpoB ≈ Taxol ®
[4]; [13]
  Lowest Average Tumor Size (T/C): 0 T/C
  Tumor Disappearance: 2/2
[4]; CCRF/CEM Leukemia, dEpoB 30 mg/kg Q2D x 5 vs Taxol 15 mg/kg Q2D x 5
  Therapeutic Effects dEpoB vs Taxol: ≅
[5]; CCRF-CEM/VBL, i.v. infusion
  Therapeutic effect Rank Order: dEpoB >>> Taxol ®
[5]; CCRF/VBL Leukemia
  Lowest Average Tumor Size (T/C): 0 T/C
  Tumor Disappearance: 2/2
[5]; CCRF/VBL Leukemia, dEpoB 30 mg/kg Q2D x 5 vs Taxol 15 mg/kg Q2D x 5
  Therapeutic Effects dEpoB vs Taxol: >>>
[6]
  Lowest Average Tumor Size (T/C): 0.02 T/C
  Tumor Disappearance: 0
[6]; dEpoB 30 mg/kg Q2D x 6 vs Taxol 15 mg/kg Q2D x 6
  Therapeutic Effects dEpoB vs Taxol: ≦
[6]; i.v. infusion
  Therapeutic effect Rank Order: Taxol ® ≧ dEpoB
[7]; UL3-C Ovary
  Lowest Average Tumor Size (T/C): 0.03 T/C
  Tumor Disappearance: 0
[7]; UL3-C Ovary, dEpoB 30 mg/kg Q2D x 5 vs Taxol 15 mg/kg Q2D x 5
  Therapeutic Effects dEpoB vs Taxol: ≧
[7]
  Average Body Weight (change), Day 33: -2.7 g
  Average Body Weight Change, Day 27: -1.5 g
  Average Body Weight Change, Day 29: -4.0 g
  Average Body Weight Change, Day 31: -3.6 g
  Average Tumor Size (T/C), Day 27: 0.19 T/C
  Average Tumor Size (T/C), Day 29: 0.13 T/C
  Average Tumor Size (T/C), Day 31: 0.03 T/C
  Average Tumor Size (T/C), Day 33: 0.03 T/C
  Average Body Weight, Day 19: 30.0 g

## CC(=O)O[C@H]1C(=O)[C@@]2(C)[C@H]([C@H](OC(=O)c3ccccc3)[C@]3(O)C[C@H](OC(=O)[C@H](O)[C@@H](NC(=O)c4ccccc4)c4ccccc4)C(C)=C1C3(C)C)[C@]1(OC(C)=O)CO[C@@H]1C[C@@H]2O [Taxol ®, paclitaxel]
[8]
  LD50: 12 mg/kg
[1]; [14]
  Lowest Average Tumor Size (T/C): 0.71 T/C
  Tumor Disappearance: 0
[1]; Taxol 6 mg/kg i.p. Q2Dx5, day 17
  tumor size reduction: 100%
[1]; [15]
  Average Body Weight (change), Day 14: -4.8 g
  Average Body Weight (change), Day 16: -5.3 g
  Average Body Weight (change), Day 18: -6.0 g
  Average Tumor Size (T/C), Day 14: 0.73 T/C
  Average Tumor Size (T/C), Day 16: 0.71* T/C
  Average Tumor Size (T/C), Day 18: 0.73* T/C
[1]; [16]
  Average Tumor Size (T/C), Day 14: 0.81 T/C
  Average Tumor Size (T/C), Day 16: 0.89 T/C
  Average Tumor Size (T/C), Day 18: 0.76 T/C
[1]; [17]
  Average Tumor Volume (T/C), Day 11: 0.50 T/C
  Average Tumor Volume (T/C), Day 13: 0.51 T/C
  Average Tumor Volume (T/C), Day 15: 0.32 T/C
  Average Tumor Volume (T/C), Day 17: 0.40 T/C
[1]; [18]
  Toxicity Death: 0/4
  lethality: 3/7
[1]; paclitaxel 5 mg/kg (so in the source)
  tumor growth suppression: slight growth suppression
[3]; CCRF/Taxol Leukemia
  Lowest Average Tumor Size (T/C): 1.09 T/C
  Tumor Disappearance: 0
[4]; [13]
  Tumor Disappearance: 2/2
[4]; [19]
  Average Body Weight Changes, Day 23: -0.1 g
  Average Body Weight Changes, Day 25: -1.9 g
  Average Body Weight Changes, Day 27: -2.9 g
  Average Body Weight Changes, Day 29: -3.0 g
  Average Body Weight Changes, Day 31: -3.6 g
  Average Body Weight Changes, Day 33: -2.6 g
  Average Body Weight Changes, Day 35: -0.5 g
  Average Body Weight Changes, Day 37: +1.2 g
  Average Body Weight Changes, Day 39: +1.3 g
  Average Body Weight Changes, Day 41: +2.1 g
  Average Tumor Size (T/C), Day 21: 1.17 T/C
  Average Tumor Size (T/C), Day 23: 0.78 T/C
  Average Tumor Size (T/C), Day 25: 0.44 T/C
  Average Tumor Size (T/C), Day 27: 0.11 T/C
  Average Tumor Size (T/C), Day 29: 0 T/C
  Average Tumor Size (T/C), Day 31: 0 T/C
  Average Tumor Size (T/C), Day 33: 0 T/C
  Average Tumor Size (T/C), Day 35: 0 T/C
  Proportion of Tumor Disappearance (n/total), Day 21: 0/4
  Proportion of Tumor Disappearance (n/total), Day 23: 0/4
  Proportion of Tumor Disappearance (n/total), Day 25: 0/4
  Proportion of Tumor Disappearance (n/total), Day 27: 1/4
  Proportion of Tumor Disappearance (n/total), Day 29: 4/4
  Proportion of Tumor Disappearance (n/total), Day 31: 4/4
  Proportion of Tumor Disappearance (n/total), Day 33: 4/4
  Proportion of Tumor Disappearance (n/total), Day 35: 1/4
  Proportion of Tumor Disappearance (n/total), Day 37: 0/4
  Proportion of Tumor Disappearance (n/total), Day 39: 0/4
  Proportion of Tumor Disappearance (n/total), Day 41: 0.4
  Average Body Weight, Day 21: 29.0 g
[4]; [20]
  Average Body Weight Change, Day 23: -0.1 g
  Average Body Weight Change, Day 25: -1.9 g
  Average Body Weight Change, Day 27: -2.9 g
  Average Body Weight Change, Day 29: -3.0 g
  Average Body Weight Change, Day 31: -3.6 g
  Average Tumor Size (T/C), Day 23: 0.78 T/C
  Average Tumor Size (T/C), Day 25: 0.44 T/C
  Average Tumor Size (T/C), Day 27: 0.11 T/C
  Average Tumor Size (T/C), Day 29: 0 T/C
  Average Tumor Size (T/C), Day 31: 0 T/C
  Tumor Disappearance: 4/4
  Average Body Weight, Day 21: 29.0 g
[5]; CCRF/VBL Leukemia
  Lowest Average Tumor Size (T/C): 0.76 T/C
  Tumor Disappearance: 0
[6]
  Lowest Average Tumor Size (T/C): 0.01 T/C
  Tumor Disappearance: 0
[7]; UL3-C Ovary
  Lowest Average Tumor Size (T/C): 0.04 T/C
  Tumor Disappearance: 0
[7]
  Average Body Weight (change), Day 33: -2.7 g
  Average Body Weight Change, Day 27: -2.9 g
  Average Body Weight Change, Day 29: -3.3 g
  Average Body Weight Change, Day 31: -2.4 g
  Average Tumor Size (T/C), Day 27: 0.10 T/C
  Average Tumor Size (T/C), Day 29: 0.08 T/C
  Average Tumor Size (T/C), Day 31: 0.03 T/C
  Average Tumor Size (T/C), Day 33: 0.04 T/C
  Average Body Weight, Day 19: 31.3 g
